Laboratory results: US20210276971A1, “TRIAZAMACROCYCLE-DERIVED CHELATOR COMPOSITIONS FOR COORDINATION OF IMAGING AND THERAPY METAL IONS AND METHODS OF USING SAME” (The Research Foundation for The State University of New York, priority 2018, published 2021)

What was measured:
[1] = EDTA challenge of ^44Sc complexes (10× excess EDTA, 37° C.); format: physicochemical; conditions: for % complex stability: EDTA, 10× eq, 37° C.; for kinetic inertness (transchelation): presence of 10×EDTA
Procedure: Challenge experiments. To measure relative complex stability, 10 uL of ligand solution at 100000 ng/mL was added to 100 uL EDTA to produce 10× excess EDTA. Mixtures were incubated at 37° C. for 1 h. To evaluate plasma stability, 10 uL of ligand solution at 100000 ng/mL added to 50 uL mouse plasma. Incubated at 37° C. for 1 h. Tubes were intermittently vortexed and 2 uL was removed at the designated timepoints and spotted onto TLC plates.

[2] = Plasma stability of ^44Sc complexes (37° C.); format: in vitro ADME, Rat; conditions: for % complex stability: Rat Plasma, 37°
[3] = HPLC check of interconversion of metal-complex diastereomers; format: physicochemical; conditions: HPLC-separated peaks of Sc(III)/Lu(III) complexes, reinjected
Procedure: FIG. 13: Sc-Overlay and Lu-Overlay—A stock solution of PICAGA (2 mg/mL) in DI water was prepared. 1.1 equivalents of metal added to the ligand. ScCl3.6H2O or Lu(ClO4)3.6H2O. pH was adjusted to 6-7 with 5 M NaOH. Complex solutions were injected on HPLC. Each peak associated with the PICAGA (5.7 and 5.9 min) was collected and reinjected at 20 min.
A direct DO3A-monoamide DUPA conjugate analogue was also synthesized. The fully assembled conjugates DOTA-DUPA and picaga-DUPA were fully deprotected and characterized using ^1H-, ^13C-NMR and mass spectrometry. Following complete characterization, the non-radioactive scandium complexes were formed and characterized using HPLC-analysis. As the glutarate arm is introduced as the pure S-entantiomer, where the alpha carbon retains the chiral alpha carbon and subsequently introduces chirality to the ligand.

SMILES | % complex stability ([1]; t = 0) [%] | % complex stability ([1]; t = 10 min) [%] | % complex stability ([1]; t = 30 min) [%] | % complex stability ([1]; t = 60 min) [%] | kinetic inertness (transchelation) [1] | % complex stability ([2]; t = 10 min) [%] | % complex stability ([2]; t = 30 min) [%] | % complex stability ([2]; t = 60 min) [%] | kinetic inertness (transchelation) ([2]; rat plasma) | interconversion of complex diastereomers [3] | interconversion of complex diastereomers ([3]; listed as picaga-DUPA)
O=C(O)CN1CCN(CC(=O)O)CCN(Cc2cccc(C(=O)O)n2)CC1 [MONOPIC, 6-{[4,7-Bis(carboxymethyl)-1,4,7-triazonan-1-yl]methyl}-2-pyridinecarboxylic acid] | 91.4 | 91.5 ± 0.8 | 91.4 ± 0.8 | 90.5 ± 0.6 | no detectable transchelation | 90.1 ± 0.8 | 91.0 ± 0.2 | 91.6 ± 0.3 | no detectable transchelation | – | –
O=C(O)CN1CCN(CC(=O)O)CCN(CC(=O)O)CCN(CC(=O)O)CC1 [DOTA, reference compound] | 9.41 | 74.4 ± 0.4 | 73.3 ± 0.5 | 74.7 ± 0.4 | – | 74.8 ± 1.8 | 74.4 ± 0.7 | 75.5 ± 0.9 | – | – | –
O=C(O)CN1CCN(Cc2cccc(C(=O)O)n2)CCN(Cc2cccc(C(=O)O)n2)CC1 [NO1A2PIC] | 90.2 | 77.4 ± 5.2 | 67.8 ± 0.9 | 51.5 ± 0.4 | diminished complex inertness | 98.9 ± 0.3 | 98.3 ± 0.1 | 97.4 ± 0.4 | – | – | –
O=C(O)CC[C@H](NC(=O)N[C@@H](CCC(=O)NCCCCCNC(=O)CCC(C(=O)O)N1CCN(CC(=O)O)CCN(Cc2cccc(C(=O)O)n2)CC1)C(=O)O)C(=O)O (stereo in doubt) [PICAGA, 2-{3-[(R)-1-Carboxy-4-[5-(4-carboxy-4-{7-(carboxymethyl)-4-[(6-carboxy-2-pyridyl)methyl]-1,4,7-triazonan-1-yl}butyrylamino)pentylamino]-4-oxobutyl]ureido}glutaric acid] | – | – | – | – | – | – | – | – | – | limited interconversion | do not interconvert even after 12 hours
